{"source": "patent US8173694B2", "about": "“Therapeutic agent” (Pentraxin Therapeutics Limited, priority 2001, dated 2012)", "key": {"[1]": {"target": "isolated pure human SAP (Homo sapiens, UniProt P02743)", "sequence (P02743 20-223)": "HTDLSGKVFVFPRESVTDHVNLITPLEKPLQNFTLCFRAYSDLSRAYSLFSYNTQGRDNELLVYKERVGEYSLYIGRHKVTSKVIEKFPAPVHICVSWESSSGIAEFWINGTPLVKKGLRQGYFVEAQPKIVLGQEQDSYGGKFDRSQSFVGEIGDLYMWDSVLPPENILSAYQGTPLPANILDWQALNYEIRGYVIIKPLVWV", "assay": "Size exclusion chromatography of isolated pure SAP mixed with drug", "assay_type": "binding", "conditions": "for Elution volume / Molecular assembly: SAP", "description": "SAP is a pentamer with 5 identical non-covalently associated protomers each bearing a single calcium dependent ligand binding site on one planar face, the binding (B) face, of the molecule (9). In the absence of calcium, human SAP forms stable decameric dimers, probably via A-face to A-face interactions (11). In the presence of calcium, isolated human SAP rapidly aggregates and precipitates, as a result of molecular lattice formation due to binding of the exposed carboxylate of the Glu167 residue on one SAP molecule by the calcium dependent ligand binding site of another SAP molecule (12,13). This autoaggregation of SAP is inhibited by other ligands to which SAP binds, and all the present inhibitors of SAP binding to amyloid fibrils were active in this respect. However we show here that the greater potency of (R)-1-[6-(R)-2-Carboxy-pyrrolidin-1-yl]-6-oxo-hexanoyl]pyrrolidine-2-carboxylic acid and related compounds, as inhibitors of SAP binding to amyloid fibrils in vitro, results from their capacity to cross link pairs of SAP molecules. The palindromic structure of (R)-1-[6-(R)-2-Carboxy-pyrrolidin-1-yl]-6-oxo-hexanoyl]pyrrolidine-2-carboxylic acid enables it to not only block the ligand binding sites on individual SAP protomers, but could also cross link pairs of pentameric SAP molecules to form B-B face to face decameric dimers.\nC-reactive protein (CRP) is a pentraxin closely related to SAP. Samples of isolated pure human SAP or CRP were mixed with (R)-1-[6-(R)-2-Carboxy-pyrrolidin-1-yl]-6-oxo-hexanoyl]pyrrolidine-2-carboxylic acid at the molar ratios shown, with respect to pentraxin protomer, in physiological ionic strength Tris buffered saline pH 8.0, and analysed by size exclusion chromatography precisely as described previously (14). The mixtures and the column eluants contained either no calcium ions or 2 mM calcium, and the concentrations of drug appropriate to maintain the molar ratios indicated above. In the absence of a specific ligand to which it can bind, purified human SAP is insoluble in the presence of calcium and elutes as high molecular weight aggregates in the void volume of the column (14). However in the absence of calcium and ligand, isolated SAP alone forms stable decamers, providing an excellent marker for the elution volume of this molecular assembly (14). Human CRP is a stable pentamer either in the presence or absence of calcium and thus provides a robust marker for the elution position of that molecular form (14)."}, "[2]": {"target": "T1, 125I-labelled human SAP (Homo sapiens, UniProt P02743)", "T1 construct": "intravenous injection of ^125I-labelled pure human or mouse SAP at time zero", "T1 sequence (P02743 20-223)": "as above", "assay": "Human SAP tracer in amyloid deposits of mice with AA amyloidosis", "assay_type": "in vivo, mouse", "method": "Clearance from the amyloid deposits, catabolism and excretion of the human SAP tracer were monitored globally by whole body counting of the mice (left), and the total amount of mouse SAP in the amyloidotic organs was determined after killing the animals on day 5 (right). […] Immediately after the 15 minute bleed, two groups, one that had received human SAP and the other mouse SAP, received a single intraperitoneal injection of 5 mg of (R)-1-[6-(R)-2-Carboxy-pyrrolidin-1-yl]-6-oxo-hexanoyl]pyrrolidine-2-carboxylic acid (desapin). Tracer remaining in the circulation is expressed as the mean (SD) percentage of the amount at the 15 minute time point for each group. […] In one of each of the pairs of groups receiving mouse or human SAP respectively, the tracer had been mixed with (R)-1-[6-(R)-2-Carboxy-pyrrolidin-1-yl]-6-oxo-hexanoyl]pyrrolidine-2-carboxylic acid (desapin) and incubated in vitro before injection into the animals. Tracer remaining in the circulation is expressed as mean (SD) total radioactivity per gram of blood in each group. Bottom panel: effect of administration of (R)-1-[6-(R)-2-Carboxy-pyrrolidin-1-yl]-6-oxo-hexanoyl]pyrrolidine-2-carboxylic acid (desapin) in the drinking water at the concentrations shown, on circulating human SAP values in human SAP transgenic mice. Mice of approximately 20 g body weight consume about 3 ml water per day.\nWhen (R)-1-[6-(R)-2-Carboxy-pyrrolidin-1-yl]-6-oxo-hexanoyl]pyrrolidine-2-carboxylic acid was administered by continuous infusion for 5 days via an indwelling osmotic pump, it dissociated both radiolabelled human SAP tracer, with which the amyloid deposits had previously been loaded, and all the endogenous mouse SAP in the deposits (FIG. 3). […] The SAP-(R)-1-[6-(R)-2-Carboxy-pyrrolidin-1-yl]-6-oxo-hexanoyl]pyrrolidine-2-carboxylic acid complex is evidently recognised as abnormal in vivo and swiftly removed from the circulation, but is apparently formed and/or cleared less efficiently in vivo with mouse SAP compared to human SAP."}, "[3]": {"tested_on": "SAP", "assay": "SAP binding to experimentally induced amyloid deposits in mice", "assay_type": "in vivo, mouse", "conditions": "compared with 1-(3-Mercapto-2-methyl-1-oxopropyl)-D-proline", "description": "The potency of (R)-1-[6-(R)-2-Carboxy-pyrrolidin-1-yl]-6-oxo-hexanoyl]pyrrolidine-2-carboxylic acid in vivo was initially considered to be consistent with its lower IC50 value in vitro. However the decameric assembly of pentameric SAP molecules, induced by the cross linking capacity of the palindromic drug, is an abnormal molecular configuration which, according to the present invention, will be recognised in vivo and promptly cleared from the circulation. This action of the drug, leading to massive depletion of SAP from the plasma, makes a critical contribution to removal of SAP from the amyloid deposits because the SAP in amyloid is derived from, and in equilibrium with, the plasma SAP pool."}, "[4]": {"conditions": "drug:protein 1:1, calcium present"}, "[5]": {"conditions": "drug:protein 10:1, calcium present"}, "[6]": {"conditions": "drug:protein 128:1, calcium present"}}, "data": [{"compound": "O=C(O)[C@H]1CCCN1C(=O)CCCCC(=O)N1CCC[C@@H]1C(=O)O", "note": "[(R)-1-[6-(R)-2-Carboxy-pyrrolidin-1-yl]-6-oxo-hexanoyl]pyrrolidine-2-carboxylic acid]", "values": [{"measurement": "Molecular assembly of isolated SAP by gel filtration", "setting": "[1]; 128 fold or greater molar excess of drug", "result": "single pentameric form"}, {"measurement": "Elution volume", "setting": "[1]; [4]", "result": 10.97, "unit": "mL"}, {"measurement": "Molecular assembly", "setting": "[1]; [4]", "result": "Decamer"}, {"measurement": "Elution volume", "setting": "[1]; [5]", "result": 10.97, "unit": "mL"}, {"measurement": "Molecular assembly", "setting": "[1]; [5]", "result": "Decamer"}, {"measurement": "Elution volume", "setting": "[1]; [6]", "result": 12.55, "unit": "mL"}, {"measurement": "Molecular assembly", "setting": "[1]; [6]", "result": "Pentamer"}, {"measurement": "Molecular assembly of isolated SAP by gel filtration", "setting": "[1]; ratios between equimolar and 100 fold molar excess of drug to SAP protomers", "result": "all the SAP is decameric"}, {"measurement": "Dissociation of human SAP from amyloid deposits", "setting": "[2]; 50 μg/kg/day, continuous infusion", "result": "significantly dissociated"}, {"measurement": "Dissociation of radiolabelled human SAP tracer from amyloid deposits", "setting": "[2]; continuous infusion for 5 days via osmotic pump", "result": "dissociated"}, {"measurement": "Uptake of radiolabelled human SAP tracer into mouse AA amyloid deposits", "setting": "[2]; intermittent intraperitoneal or subcutaneous injection", "result": "inhibited uptake"}, {"measurement": "Activity in inhibiting SAP binding and dissociating SAP from deposits, relative to lead compound", "setting": "[3]", "result": "more active"}]}]}
